# Source: publication PMC9599254, “Human Milk Oligosaccharide Utilization in Intestinal Bifidobacteria Is Governed by Global Transcriptional Regulator NagR” (mSystems, 2022)
# Tests used:
# [1] = biological target: T1, NagR (Bifidobacterium longum, UniProt A0ACD7UQ49); assay: EMSA, disruption of NagR-DNA complex; format: binding; settings: 25 nM NagR, 1 nM IRD700-labelled hmoA operator probe; pH 7.5, 50 mM KCl, 5 mM MgCl2, room temperature; effector releasing DNA
# T1 construct: gene BLIJ_0896; full-length as described, N-terminal His tag, codon-optimized synthetic gene in in-house pET-49b(+), expressed in E. coli BL21(DE3), Ni-NTA purified; tag removal not mentioned
# T1 sequence (A0ACD7UQ49 36-409 limits assumed): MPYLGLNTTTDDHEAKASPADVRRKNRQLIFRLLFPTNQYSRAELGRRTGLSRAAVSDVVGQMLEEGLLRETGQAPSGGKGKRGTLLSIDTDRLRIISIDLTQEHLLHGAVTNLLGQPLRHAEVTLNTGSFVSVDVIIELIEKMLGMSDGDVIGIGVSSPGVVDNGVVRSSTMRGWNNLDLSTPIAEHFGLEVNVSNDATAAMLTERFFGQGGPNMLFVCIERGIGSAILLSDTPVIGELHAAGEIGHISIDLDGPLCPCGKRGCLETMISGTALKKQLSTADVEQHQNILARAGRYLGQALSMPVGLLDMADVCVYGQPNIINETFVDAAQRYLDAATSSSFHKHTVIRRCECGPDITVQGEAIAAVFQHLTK
# [2] = test system: NagR (Bifidobacterium longum subsp. infantis ATCC 15697 (= JCM 1222)); assay: EMSA; settings: no robust shift even at >500 nM NagR; 10 mM Tris-HCl pH 7.5, 50 mM KCl, 5 mM MgCl2, 2.25 mM DTT, 0.125% Tween 20, 2.5% glycerol; 1 nM probe, 0-2000 nM NagR, 60 min, room temperature; 6% gel, 0.5x …
EC50 [1],Molecule,K half [2]
490 ± 60 µM,CC(=O)N[C@H]1[C@@H](OP(=O)(O)O)O[C@H](CO)[C@@H](O)[C@@H]1O [GlcNAc-1P],–
330 ± 50 µM,CC(=O)N[C@H]1C(O)O[C@H](CO)[C@@H](O)[C@@H]1O (stereo partly shown) [GlcNAc],–
–,ATTTCGTCGTTGAAATTGTTATGAAACTTCACCAATAAATTCCAGTGTA (double strand) [nagB_II probe],> 500 nM
–,GGGCCTGATGCAAATATGTTAAGGCTGTTGACAGTGCTGGCTCCCGTAC (double strand) [hmoA6 probe],> 500 nM
